Data on one compound can be found in patent US20240010658A1, “ABHD6 ANTAGONIST” (ONO PHARMACEUTICAL CO., LTD., priority 2021, published 2024).

The term IC50 denotes the concentration that inhibits the measured activity by half.

Assay [1] has as its target recombinant human ABHD6 (33-337) (Homo sapiens (Human), UniProt Q9BV23). Description: Evaluation of ABHD6 enzyme inhibitory activity (arachidonic acid production from 1-arachidonoyl glycerol, RapidFire-MS). As to conditions: inhibition of arachidonic acid production, 10 μmol/L 1-arachidonoyl glycerol, 1 hour, room temperature. The class given is biochemical. As to the method:
The recombinant human ABHD6 (33-337) was a GST-tagged ABHD6, and one which was expressed in E. coli, then purified with a Glutathione-Sepharose 4B resin, and then concentrated was used. The enzyme reaction was carried out at room temperature using a 384-well microplate made of polypropylene, and wells to which no enzyme was added were designated as a blank group.
One hour after the start of the enzyme reaction, methanol containing, as an internal standard substance, arachidonic acid-d8 (Cayman Chemical) and 1% formic acid was added to stop enzymatic reaction. The upper part of the enzyme reaction plate was sealed with aluminum, and centrifugation was performed at 560 g for 5 minutes at room temperature. Then, arachidonic acid as an enzyme reaction product and arachidonic acid-ds as the internal standard substance were quantified with RapidFire (registered trademark)-Mass Spectrometry system.

Another assay has as its target human ABHD6 (Homo sapiens (Human), UniProt Q9BV23). The experiment in a line: Measurement of binding affinity for human ABHD6 (BRET, HEK293 cells expressing NanoLuc-human ABHD6 fusion protein). The settings on record: BRET competition with fluorescent probe molecule 100 nmol/L in HEK293 cells expressing NanoLuc-human ABHD6. The method, then:
The binding affinity of the test compound for human ABHD6 was measured using bioluminescence resonance energy transfer (hereinafter, abbreviated as BRET) as an index. The bioluminescence resonance energy transfer is induced by the proximity of a probe molecule and a NanoLuc-human ABHD6 fusion protein, which is caused by allowing a fluorescent probe molecule and a test compound to act in a competitive manner using HEK293 cells forcibly expressing the NanoLuc-human ABHD6 fusion protein.
The test compound and the compound described in Example 2 as a control substance were each dissolved in dimethyl sulfoxide (DMSO) to prepare a 10 mmol/L solution. The prepared 10 mmol/L solution was thawed at the time of use, serially diluted with DMSO, and subjected to an experiment.
HEK293 cells expressing a NanoLuc-human ABHD6 fusion protein were statically cultured at 37° C. in the presence of 5% CO2 using inactivated (56° C., 30 min) 9.8 vol % non-dialyzed-FBS (containing 0.5 vol % GENETICIN and 1% penicillin-streptomycin). The subculture was performed by the following method.
The culture medium was removed, and the cells were washed once with phosphate buffered saline without Ca^2+ and Mg^2+. An appropriate amount of trypsin-EDTA was added, and the cells were incubated at room temperature. After the cells were detached, a culture medium in a volume 10-fold the volume of trypsin-EDTA (0.05%) was added to stop an enzyme reaction. The cells were collected in a centrifuge tube, and centrifuged at room temperature for 3 minutes at 120 g, and the supernatant was removed. The cells were suspended in an appropriate amount of culture medium and seeded in a culture flask.
HEK293 cells expressing a NanoLuc-human ABHD6 fusion protein were prepared, and then cryopreserved so as to be 5.0×10^6 cells/mL/vial in CELLBANKER2, and the cells were subjected to an experiment. HBSS (+) containing 20 mmol/L HEPES (pH 7.3) and 0.1% BSA was prepared and used as an assay buffer. The cells were thawed and suspended in the assay buffer to prepare a cell suspension of 2×10^5 cells/mL. […] The plate was allowed to stand at 37° C. for 30 minutes in the presence of 5% CO2. Then, a probe molecule (10 mmol/L in DMSO) having a fluorophore was diluted with the assay buffer so as to have a final concentration of 100 nmol/L, and added to the assay plate in an amount of 15 μL each. Further, this was allowed to stand at 37° C. for 30 minutes in the presence of 5% CO2. Then, a Nano-Glo (registered trademark) Vivazine (trademark) substrate (Promega Corporation) was diluted with the assay buffer according to the method described in the protocol, and added to the assay plate in an amount of 10 μL each, and this was allowed to stand at room temperature for 1 hour. Thereafter, the luminescence and fluorescence intensity were measured using a GloMax (registered trademark) discover system. The ratio between the emission intensity through the 450 nm bandpass filter and the fluorescence intensity through the 600 nm longpass filter was defined as the measured value of each sample. The measured value of the group containing the control substance at a final concentration of 30 μmol/L was defined as 100% inhibition. The measured value of the group not containing the compound was defined as 0% inhibition. The IC50 value of the test compound was determined from the measured value at each test compound concentration.

human ABHD6, sequence (Q9BV23 whole entry, the tested form may be a part): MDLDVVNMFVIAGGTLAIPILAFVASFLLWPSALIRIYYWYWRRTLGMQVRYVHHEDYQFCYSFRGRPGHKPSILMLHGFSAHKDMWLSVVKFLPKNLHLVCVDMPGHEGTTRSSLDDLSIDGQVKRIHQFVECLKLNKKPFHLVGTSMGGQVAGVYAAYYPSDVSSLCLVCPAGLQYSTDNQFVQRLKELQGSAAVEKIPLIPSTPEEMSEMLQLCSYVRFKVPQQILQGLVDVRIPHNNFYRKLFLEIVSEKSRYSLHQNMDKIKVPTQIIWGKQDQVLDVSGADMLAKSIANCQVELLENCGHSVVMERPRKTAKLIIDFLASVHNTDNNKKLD
recombinant human ABHD6 (33-337), sequence (Q9BV23 33-337): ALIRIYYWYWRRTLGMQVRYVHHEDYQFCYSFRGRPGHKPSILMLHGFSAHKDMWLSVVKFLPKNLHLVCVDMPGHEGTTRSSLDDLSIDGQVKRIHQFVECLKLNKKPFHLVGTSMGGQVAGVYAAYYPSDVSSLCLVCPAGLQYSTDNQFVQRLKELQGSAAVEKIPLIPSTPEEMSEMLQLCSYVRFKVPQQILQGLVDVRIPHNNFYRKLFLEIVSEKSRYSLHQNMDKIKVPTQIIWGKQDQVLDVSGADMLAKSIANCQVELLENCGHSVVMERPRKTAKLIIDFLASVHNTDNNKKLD

Turning to `O=C(c1cc2c(s1)CCOC2)N1C[C@@H]2CC[C@@H](Nc3ccc(Br)nn3)[C@@H]2C1` [Example 2-1, [(3aS,4R,6aR)-4-[(6-Bromo-3-pyridazinyl)amino]hexahydrocyclopenta[c]pyrrol-2(1H)-yl](6,7-dihydro-4H-thieno[3,2-c]pyran-2-yl)methanone], the IC50 in assay [1] turned out to be 1 nM; on human ABHD6 it was 3 nM.
